Experimental data as given in patent US9593305B2, “Differentiation of pluripotent stem cells” (Janssen Biotech, Inc., priority 2008, dated 2017).

System: H1 human embryonic stem cells
Test: Secondary assay: panel of compounds with growth factor combinations and muscimol, no activin A (Example 6, Table 5)
Format: cell-based
Conditions: no AA (with Wnt3a)
Experimental: Clusters of H1 human embryonic stem cells were grown on reduced growth factor […]™ (Invitrogen; Cat #356231)-coated tissue culture plastic. Cells were passaged using collagenase (Invitrogen; Cat #17104-019) treatment and gentle scraping, washed to remove residual enzyme, and plated with even dispersal at a ratio of 1:1 (surface area) on reduced growth factor […]™-coated 96-well black plates (Packard ViewPlates; PerkinElmer; Cat #6005182) using volumes of 100 μl/well. Cells were allowed to attach as clusters and then recover log phase growth over a 1 to 3 day period, feeding daily with MEF-conditioned medium supplemented with 8 ng/ml bFGF (R&D Systems; Cat #233-FB). Plates were maintained at 37° C., 5% CO2 in a humidified box throughout the duration of the assay. Stocks of growth factors purchased from R&D Systems were EGF (Cat #236-EG), FGF4 (Cat #235-F4), PDGF-A (Cat #221-AA), PDGF-D (Cat #1159-SB), PDGF-A/B (Cat #222-AB), and VEGF (Cat #293-VE). […] All growth factors were solubilized in PBS with 0.1% BSA (Sigma; Cat #A7888) and stored frozen at −80° C. […] Cat #D2650) and stored frozen at −80° C. Compounds were available as 5 mM stocks in 96-well plate format, solubilized in 100% DMSO and stored at −80° C. Compounds were further diluted to an intermediate concentration of 0.2 mM in 50 mM HEPES (Invitrogen; Cat #15630-080), 20% DMSO and stored at 4° C. All growth factors and inhibitors were prepared in a deep well, 96-well polypropylene plate, diluted to 5× intermediate stocks in DMEM:F12 base medium at the beginning of assay and stored at 4° C. A secondary screening assay was conducted, testing in triplicate and feeding on alternate days over the four-day assay timeframe. Assays were initiated by aspirating culture medium from each well followed by three washes in PBS to remove residual growth factors and serum. Test volumes of 80 μl per well were added back containing DMEM:F12 base medium (Invitrogen; Cat #11330-032) supplemented with 0.625% FCS (HyClone; […] All remaining growth factors were tested at a final assay concentration of 50 ng/ml (EGF, FGF4, PDGF-A, PDGF-A/B, VEGF). […] At the conclusion of four-days of culture, assay plates were washed twice with PBS, fixed with 4% paraformaldehyde (Alexis Biochemical; Cat #ALX-350-011) at room temperature for 20 minutes, then washed three times with PBS and permeabilized with 0.5% Triton X-100 (Sigma; Cat #T8760-2) for 20 minutes at room temperature. Cells were washed again three times with PBS and blocked with 4% chicken serum (Invitrogen; Cat #16110082) in PBS for 30 minutes at room temperature. Primary antibody (goat anti-human SOX17; R&D Systems; cat #AF1924) was diluted 1:100 in 4% chicken serum and added to each well for one hour at room temperature. Alexa Fluor 488 conjugated secondary antibody (chicken anti-goat IgG; Molecular Probes; Cat #AZ1467) was diluted 1:200 in PBS and added to each sample well after washing three times with PBS. To counterstain nuclei, 4 μg/ml Hoechst 33342 (Invitrogen; Cat #H3570) was added for ten minutes at room temperature. Plates were washed once with PBS and left in 100 μl/well PBS for imaging. Imaging was performed using an IN Cell Analyzer 1000 (GE Healthcare) utilizing the 51008bs dichroic for cells stained with Hoechst 33342 and Alexa Fluor 488. Exposure times were optimized from positive control wells and from untreated negative control wells stained with secondary antibody alone. Images from 15 fields per well were acquired to compensate for any cell loss during the bioassay and subsequent staining procedures. […] Segmentation for the nuclei was determined based on grayscale levels (baseline range 100-300) and nuclear size. Averages and standard deviations were calculated for each replicate data set. Total SOX17 protein expression was reported as total intensity or integrated intensity, defined as total fluorescence of the cell multiplied by the area of the cell. […]

[1] = EGF + FGF4 + PDGF-AB + Muscimol

SMILES	Cell Number, % of positive control (EGF) [%]	Cell Number, Average Total Cell Number (EGF)	Sox17 Expression, % of positive control (EGF) [%]	Sox17 Expression, Average Total Intensity (EGF)	Cell Number, % of positive control (EGF + FGF4) [%]	Cell Number, Average Total Cell Number (EGF + FGF4)	Sox17 Expression, % of positive control (EGF + FGF4) [%]	Sox17 Expression, Average Total Intensity (EGF + FGF4)	Cell Number, % of positive control (EGF + FGF4 + PDGF-A + Muscimol) [%]	Cell Number, Average Total Cell Number (EGF + FGF4 + PDGF-A + Muscimol)	Sox17 Expression, % of positive control (EGF + FGF4 + PDGF-A + Muscimol) [%]	Sox17 Expression, Average Total Intensity (EGF + FGF4 + PDGF-A + Muscimol)	Cell Number, % of positive control (EGF + FGF4 + PDGF-A + VEGF) [%]	Cell Number, Average Total Cell Number (EGF + FGF4 + PDGF-A + VEGF)	Sox17 Expression, % of positive control (EGF + FGF4 + PDGF-A + VEGF) [%]	Sox17 Expression, Average Total Intensity (EGF + FGF4 + PDGF-A + VEGF)	Cell Number, % of positive control (EGF + FGF4 + PDGF-AB) [%]	Cell Number, Average Total Cell Number (EGF + FGF4 + PDGF-AB)	Sox17 Expression, % of positive control (EGF + FGF4 + PDGF-AB) [%]	Sox17 Expression, Average Total Intensity (EGF + FGF4 + PDGF-AB)	also measured
CCN1CC(=O)NCCCc2cncc(c2)-c2ncnc(n2)Nc2cc(Cl)cc(c2)C1 [Compound 35, 10-Chloro-14-ethyl-3,5,7,14,17,23,27-heptaazatetracyclo[19.3.1.1˜2,6˜0.1˜8,12]Theptacosa-1(25), 2(27), 3,5,8(26), 9,11,21,23-nonaen-16-one]	228.40	23887	−6.32	−1.01E+07	203.36	21268	0.85	1.36E+06	147.80	15457	43.15	6.89E+07	154.25	16132	57.04	9.11E+07	168.39	17611	8.03	1.28E+07	Cell Number, % of positive control [1]: 171.62%; Cell Number, Average Total Cell Number [1]: 17949; Sox17 Expression, % of positive control [1]: 0.96%; Sox17 Expression, Average Total Intensity [1]: 1.54E+06; Cell Number, % of positive control (EGF + PDGF-A + VEGF): 222.23%; Cell Number, Average Total Cell Number (EGF + PDGF-A + VEGF): 23242; Sox17 Expression, % of positive control (EGF + PDGF-A + VEGF): 7.72%; Sox17 Expression, Average Total Intensity (EGF + PDGF-A + VEGF): 1.23E+07; Cell Number, % of positive control (FGF4 + PDGF-A + VEGF): 153.63%; Cell Number, Average Total Cell Number (FGF4 + PDGF-A + VEGF): 16068; Sox17 Expression, % of positive control (FGF4 + PDGF-A + VEGF): 24.57%; Sox17 Expression, Average Total Intensity (FGF4 + PDGF-A + VEGF): 3.92E+07
O=C1NCCCc2cncc(c2)-c2ncnc(n2)Nc2cc(Cl)cc(c2)CN2CCCC1C2 (stereo not drawn) [Compound 37, 10-Chloro-3,5,7,14,20,26,31-heptaazapentacyclo[22.3.1.1˜2,6˜0.1˜8,12˜0.1˜14,18˜]hentriaconta-1(28), 2(31), 3,5,8(30), 9,11,24,26-nonaen-19-one]	76.17	7966	−7.42	−1.19E+07	66.28	6932	−2.89	−4.62E+06	55.66	5821	−7.64	−1.22E+07	83.93	8778	0.09	1.39E+05	71.46	7473	−1.63	−2.61E+06	Cell Number, % of positive control [1]: 75.67%; Cell Number, Average Total Cell Number [1]: 7914; Sox17 Expression, % of positive control [1]: −1.20%; Sox17 Expression, Average Total Intensity [1]: −1.91E+06; Cell Number, % of positive control (EGF + PDGF-A + VEGF): 123.88%; Cell Number, Average Total Cell Number (EGF + PDGF-A + VEGF): 12956; Sox17 Expression, % of positive control (EGF + PDGF-A + VEGF): −7.82%; Sox17 Expression, Average Total Intensity (EGF + PDGF-A + VEGF): −1.25E+07; Cell Number, % of positive control (FGF4 + PDGF-A + VEGF): 64.36%; Cell Number, Average Total Cell Number (FGF4 + PDGF-A + VEGF): 6731; Sox17 Expression, % of positive control (FGF4 + PDGF-A + VEGF): −6.89%; Sox17 Expression, Average Total Intensity (FGF4 + PDGF-A + VEGF): −1.10E+07
CN1CCC(=O)NCCCNc2ncccc2-c2ncnc(n2)Nc2cccc(c2)C1 [Compound 39, 9-Methyl-2,3,4,5,7,8,9,10-octahydro-16H-17,21-(azeno)-11,15-(metheno)pyrido[3,2-g][1,3,5,9,13,17]hexaazacyclotricosin-6(1H)-one]	122.85	11615	0.09	1.49E+05	110.59	10456	2.98	5.11E+06	96.28	9103	0.43	7.32E+05	84.33	7973	3.09	5.30E+06	105.47	9972	0.94	1.62E+06	Cell Number, % of positive control [1]: 111.48%; Cell Number, Average Total Cell Number [1]: 10540; Sox17 Expression, % of positive control [1]: 1.29%; Sox17 Expression, Average Total Intensity [1]: 2.22E+06; Cell Number, % of positive control (EGF + PDGF-A + VEGF): 180.34%; Cell Number, Average Total Cell Number (EGF + PDGF-A + VEGF): 17050; Sox17 Expression, % of positive control (EGF + PDGF-A + VEGF): 2.82%; Sox17 Expression, Average Total Intensity (EGF + PDGF-A + VEGF): 4.84E+06; Cell Number, % of positive control (FGF4 + PDGF-A + VEGF): 93.67%; Cell Number, Average Total Cell Number (FGF4 + PDGF-A + VEGF): 8856; Sox17 Expression, % of positive control (FGF4 + PDGF-A + VEGF): 0.41%; Sox17 Expression, Average Total Intensity (FGF4 + PDGF-A + VEGF): 7.01E+05
